Source: patent publication EP4792811A1, “S1PR4 REGULATOR COMPOUND FOR MUSCLE DISEASE TREATMENT AND APPLICATION THEREOF” (Shengyuan Zetong (Shanghai) Pharmaceutical Co., Ltd, priority 2023, dated 2025)

Assays:
[1] = target: T1, hS1P1 (Homo sapiens, UniProt P21453); assay: Tango β-arrestin recruitment assay, Tango-hS1P1-CHO; type: cell-based; conditions: selectivity table; Tango-S1PR1-CHO-K1 cells
T1 construct: expressed in transfected cells; host or cells: CHO-K1
Source text: The Tango assay detects ligand-dependent GPCR activity through the interaction between β-arrestin and GPCRs. […] The NTEV fragment and the tetracycline transactivator (tTA), an artificial transcription factor, are fused at the C-terminus of the GPCR, while the CTEV fragment is fused to human β-arrestin 2. To enhance the stability of the interaction between GPCR and β-arrestin, a short sequence from the C-terminus of the human arginine vasopressin receptor 2 (V2 tail) is inserted between the GPCR and NTEV. The V2 tail contains multiple GRK phosphorylation sites, which strengthen β-arrestin binding upon phosphorylation. The CTEV fragment carries the stabile point mutation S219P and is truncated at residue 221 to remove the autoinhibitory C-terminal tail. Meanwhile, β-arrestin 2 is truncated to lack the entire C-terminal tail (residues 383-410 deleted). This truncation confers robust stimulus-dependent receptor desensitization, thereby improving detection sensitivity compared with wild-type β-arrestin 2. The UAS reporter construct consists of upstream activating sequence (UAS) elements, a minimal CMV promoter, and a tTA-dependent luciferase reporter gene. Therefore, constructing Tango cells requires the co-transfection of the above three plasmids into host cells. Upon GPCR activation and β-arrestin recruitment, the TEV enzyme at the β-arrestin terminus cleaves tTA from the GPCR C-terminus. The released tTA initiates tTA-dependent luciferase transcription, and compound activity is ultimately determined by measuring luminescence intensity.
• 1) Tango cell line from was digested from the culture dish respectively. After cell counting, the cells were plated at a density of 10,000 cells per well with […] into a white opaque 96-well plate (add 60 µL D'Hanks to the surrounding wells), and incubated overnight (20 h) in a 5% CO2 incubator at 37°C. The cell density will reach approximately 90% the next day. • 2) After 20 h, 30 µL of serially diluted compound solution was added to each well. The control group was supplemented with 30 µL F12K complete medium. Each group had three replicate wells. • 3) Samples were collected after 20 h of drug treatment.
(All compounds were tested at a final concentration of 45 µM, with 9 serial dilutions at 5-fold intervals. 1 µM BAF-312 was used as the positive control for S1PR1, and 25 µM BAF-312 was used as the positive control for S1PR4.)
(§1) ^a β-arrestin recruitment activity based on Tango-S1PR1-CHO-K1 and Tango-S1PR4-CHO-K1 cells, expressed as mean EC50 values ± SD. ^b FLIPR assays were performed using S1PR2-CHO and S1PR5-CHO cell lines, expressed as mean EC50 values ± SD. ^c β-arrestin recruitment activity based on PathHunter CHO-K1-S1PR3 cells, expressed as mean EC50 values ± SD. Data are the mean of at least two independent determinations, reported as mean ± SD (standard deviation).

[2] = target: T2, S1PR2 (Homo sapiens, UniProt O95136); assay: FLIPR assay, S1PR2-CHO cell line; type: cell-based
T2 construct: expressed in transfected cells; host or cells: CHO
T2 sequence (O95136 whole entry, species assumed): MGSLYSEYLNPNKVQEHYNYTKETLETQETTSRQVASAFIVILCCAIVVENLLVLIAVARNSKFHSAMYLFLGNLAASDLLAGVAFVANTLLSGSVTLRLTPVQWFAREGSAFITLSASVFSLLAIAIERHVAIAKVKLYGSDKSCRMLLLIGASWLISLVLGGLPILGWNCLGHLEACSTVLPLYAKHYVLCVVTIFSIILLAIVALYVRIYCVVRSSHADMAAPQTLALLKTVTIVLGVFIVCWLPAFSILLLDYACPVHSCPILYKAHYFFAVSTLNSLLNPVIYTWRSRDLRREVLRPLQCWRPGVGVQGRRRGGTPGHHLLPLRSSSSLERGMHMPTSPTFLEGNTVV
Description: as §1

[3] = target: T3, S1PR3 (Homo sapiens, UniProt Q99500); assay: β-arrestin recruitment, PathHunter CHO-K1-S1PR3 cells; type: cell-based
T3 construct: expressed in transfected cells; host or cells: PathHunter CHO-K1
T3 sequence (Q99500 whole entry): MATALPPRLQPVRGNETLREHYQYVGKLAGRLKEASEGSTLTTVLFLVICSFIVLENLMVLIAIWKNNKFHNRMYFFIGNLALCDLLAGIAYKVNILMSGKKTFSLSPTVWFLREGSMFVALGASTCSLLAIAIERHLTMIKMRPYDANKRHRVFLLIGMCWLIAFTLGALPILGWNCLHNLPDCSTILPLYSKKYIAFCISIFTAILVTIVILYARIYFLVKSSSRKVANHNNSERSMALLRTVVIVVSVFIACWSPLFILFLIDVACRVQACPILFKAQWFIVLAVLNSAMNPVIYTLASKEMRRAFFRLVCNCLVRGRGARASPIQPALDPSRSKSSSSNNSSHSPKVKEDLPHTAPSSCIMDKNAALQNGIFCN
Description: as §1

[4] = test system: Duchenne muscular dystrophy model mice; assay: In vivo pharmacodynamic test in Duchenne muscular dystrophy model mice (Compound 30); conditions: for serum creatine kinase level: after treatment
Description: Experimental Animals: A total of 35 Duchenne muscular dystrophy model mice were divided into 6 groups as shown below.
Intragastric administration was initiated from Day 0. Body weight was measured daily during the experiment to adjust the drug dosage. Grip strength tests were performed every 2 days to observe changes in the mice's grip strength until the experiment concluded on Day 21. Changes in the limb grip strength, serum creatine kinase content, and muscle fibrosis/inflammation in the mice were detected as indicators for evaluating drug efficacy.
The mouse was placed horizontally on the grip test board. The mouse's tail was held and pulled gently in the opposite direction without using excessive force. The tail was gradually pulled until the mouse released the grip force sensor. The maximum value recorded by the grip force sensor is the grip strength. The test was repeated for 3 times and the average value was taken.
After the completion of administration, blood was collected via the orbital sinus, allowed to stand for 30 minutes, centrifuged at 3000 rpm at 4°C for 15 minutes, and serum was extracted, stored frozen at -20°C, and detected in accordance with the kit instructions.
After the experiment, the tibialis anterior, extensor digitorum longus, and diaphragm of the mice were harvested, fixed, sectioned, and subjected to HE staining and Sirius Red staining to observe the degree of muscle fibrosis. The slice was subjected to immunofluorescence staining with F4/80 to observe the level of muscle inflammation.

[5] = compared with the endogenous ligand S1P
[6] = 0.3 mg/kg intragastric once daily
[7] = 0.3 mg/kg intragastric once daily, compared with the model group
[8] = 1 mg/kg intragastric once daily
[9] = 3 mg/kg intragastric once daily

T1 sequence (P21453 whole entry): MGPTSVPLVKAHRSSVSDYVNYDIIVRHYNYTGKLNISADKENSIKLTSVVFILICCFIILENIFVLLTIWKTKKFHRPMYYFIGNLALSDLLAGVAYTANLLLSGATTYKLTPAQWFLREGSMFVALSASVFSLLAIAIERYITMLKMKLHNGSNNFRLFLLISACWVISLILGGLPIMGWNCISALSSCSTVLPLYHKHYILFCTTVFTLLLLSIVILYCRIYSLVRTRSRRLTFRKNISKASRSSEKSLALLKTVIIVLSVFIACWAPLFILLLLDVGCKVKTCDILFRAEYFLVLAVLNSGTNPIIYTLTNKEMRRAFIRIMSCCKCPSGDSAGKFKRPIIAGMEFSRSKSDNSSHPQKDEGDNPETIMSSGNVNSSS

For `CCc1cc(/C(C)=N/OCc2ccc(-c3ccccc3)c(C)c2)ccc1CN1CC[C@H](C(=O)O)C1` [Compound 30], the Emax [1] was 102%, the “agonist activity on S1PR2” value [2, 5] was “no agonist activity” and the Emax ([2]; selectivity table, FLIPR, S1PR2-CHO) was -6.9%. For the same molecule, the “agonist activity on S1PR3” value [3, 5] was “no agonist activity”, the Emax ([3]; selectivity table, PathHunter CHO-K1-S1PR3) was 2.25% and the “collagen deposition (collagen area ratio)” value [4, 6] was “significantly reduced collagen deposition”. For the same molecule, the “serum creatine kinase level” value [4, 6] was “significantly reduced”, the “body weight growth trend” value [4, 7] was “no difference” and the “number of centrally nucleated fibers (HE staining)” value (from here on “number”) [4, 7] was “no significant difference”. The “collagen deposition (collagen area ratio)” value [4, 8] was “significantly reduced collagen deposition”, the “macrophage content (F4/80 immunofluorescence, muscle inflammation)” value [4, 8] was “significantly reduced macrophage content” and the “number” value [4, 8] was “significantly reduced”. The “serum creatine kinase level” value [4, 8] was “significantly reduced”, the “body weight growth trend” value ([4]; 1 mg/kg intragastric once daily, compared with the model group) was “no difference” and the “collagen deposition (collagen area ratio)” value [4, 9] was “significantly reduced collagen deposition”. The “macrophage content (F4/80 immunofluorescence, muscle inflammation)” value [4, 9] was “significantly reduced macrophage content”, the “number” value [4, 9] was “significantly reduced” and the “serum creatine kinase level” value [4, 9] was “significantly reduced”. For the same molecule, the “body weight growth trend” value ([4]; 3 mg/kg intragastric once daily, compared with the other groups) was “relatively slow” and the “increase in grip strength (ratio of grip strength to body weight)” value ([4]; 3 mg/kg intragastric once daily, first 14 days) was “most significant”.
